The target in one series is T1, H3 histamine receptor (Homo sapiens, UniProt Q9Y5N1).
T1 construct: host or cells: recombinant frozen ready-to-use cells
Kind of series: Lance cAMP intrinsic activity assay (antagonist dose-response). The series is classed as cell-based. How it is done: Intrinsic activity studies were performed by two methods, Aequoscreen and Lance cAMP assays according to the manufacturer of the ready to use cells with stable expression of the H3 histamine receptor (Perkin Elmer, Waltham, MA, USA).
The LANCE Ultra cAMP assay as a homogeneous time-resolved fluorescence resonance energy transfer (TR-FRET) immunoassay is designed to measure cAMP produced upon modulation of adenylyl cyclase activity by GPCRs. The assay is based on the competition between the europium (Eu) chelate-labeled cAMP tracer and sample cAMP for binding sites on cAMP-specific monoclonal antibodies labeled with the ULight dye.
For measurement cells (frozen, ready to use) were thawed and resuspended in 4 mL of HBSS 1X. Then cells suspension was placed in a 15 mL Falcon tube and centrifuged for 10 min at 275× g. Pellet was resuspended in 1.5 mL HBSS 1X to determine cells concentration, and after next centrifugation cells were resuspended in stimulation buffer at appropriate concentration. […] Cell stimulation was performed for 30 min at RT°, and the agonist and antagonists were added simultaneously.

Series [1] deals with non-obese rats fed palatable diet. Put plainly: Model of excessive eating: body weight, calorie intake, fat pads. The class given is in vivo, female Wistar rats. The settings on record: for body weight gain: i.p. daily 28 days, vs palatable diet + vehicle; for caloric intake over the 28 days: i.p., KSK compounds 10 mg/kg b.w. or bupropion/naltrexone. How it is done: Female Wistar rats were housed in pairs. […] The water was available ad libitum. Palatable control group (palatable diet + vehicle) received vehicle (1% Tween 80, i.p.), while palatable test groups (palatable diet + compound) were injected i.p. tested compounds at the dose of 10 or 1 mg/kg b.w./day suspended in 1% Tween 80 or the reference compound bupropion/naltrexon. The combination of bupropion at a dose of 20 mg/kg b.w./day and naltrexone at a dose of 1 mg/kg b.w./day was also suspended in 1% Tween 80 and administered i.p. Weight was evaluated daily. Calorie intake was evaluated ones per week. On the 31st day, 20 min after i.p. administration of heparin (5000 units/rat) and thiopental (70 mg/kg b.w.), animals were sacrificed and peritoneal fat pads were collected (Figure 11).
Palatable diet contained: 100 g peanuts—612 kcal; 100 mL condensed milk—131 kcal; 100 g milk chocolate—529 kcal; 100 g cheese—325 kcal. Standard diet contained 100 g feed—280 kcal.

Series [2] shares this test system. Kind of series: Intraperitoneal glucose tolerance test after 28 administrations. The series is classed as in vivo, female Wistar rats. Particulars: for blood glucose levels at 30 or/and 60 min after glucose load: KSK compounds 10 mg/kg b.w. or bupropion/naltrexone, glucose 1 g/kg i.p., vs control fed palatable feed; for AUC of IPGTT: vs control rats fed high-calorie feed. How it is done: The test was performed on the 29th day of the experiment. After twenty-eight administrations of the test compounds, food was discontinued for 20 h and then glucose tolerance was tested. Glucose (1 g/kg b.w.) was administrated i.p.. […] The area under the curve (AUC) was calculated using the trapezoidal rule.

Another series in a line: in vitro. Particulars: PAMPA, pH 7.4. How it is done: The reference compounds, well-permeable caffeine and low-permeable norfloxacin were obtained from Sigma-Aldrich (St. Louis, MO, USA). Used for this study, pre-coated PAMPA Plate System Gentest™ was provided by Corning (Tewksbury, MA, USA). The system consisted of 96-well receiver filter plate pre-coated with structured layers of phospholipids and a donor microplate. The assay was performed as described previously. […] After 5 h of incubation at RT° the UPLC-MS spectrometry (Waters ACQUITY™ TQD system with the TQ Detector, Waters, Milford, MA, USA) method was used to estimate the quantity of compounds that penetrated from donor to acceptor wells. The permeability coefficients (Pe, cm/s) were calculated using the formulas provided by Corning.

Details of series [3]: method as in PMID 31362197. The settings on record: PAMPA, published previously ref 17; cited from earlier work.
The mark [4] stands for this setting: antagonist dose-response with reference agonist (R)-alpha-methylhistamine at EC80, read-out: Lance cAMP IC50.
Where [5] appears, read: text summary over both methods (Lance cAMP and Aequoscreen), read-out: IC50 value.
Where [6] appears, read: palatable feed, KSK compounds 10 mg/kg b.w. or bupropion/naltrexone combination.
Where [7] appears, read: palatable feed, vs palatable feed + vehicle.

The structures appear in SMILES notation. Entries after “also recorded” stand apart in the source; their conditions may differ. Read-outs that look alike come from different tables or passages of the source.

T1 sequence (Q9Y5N1 whole entry): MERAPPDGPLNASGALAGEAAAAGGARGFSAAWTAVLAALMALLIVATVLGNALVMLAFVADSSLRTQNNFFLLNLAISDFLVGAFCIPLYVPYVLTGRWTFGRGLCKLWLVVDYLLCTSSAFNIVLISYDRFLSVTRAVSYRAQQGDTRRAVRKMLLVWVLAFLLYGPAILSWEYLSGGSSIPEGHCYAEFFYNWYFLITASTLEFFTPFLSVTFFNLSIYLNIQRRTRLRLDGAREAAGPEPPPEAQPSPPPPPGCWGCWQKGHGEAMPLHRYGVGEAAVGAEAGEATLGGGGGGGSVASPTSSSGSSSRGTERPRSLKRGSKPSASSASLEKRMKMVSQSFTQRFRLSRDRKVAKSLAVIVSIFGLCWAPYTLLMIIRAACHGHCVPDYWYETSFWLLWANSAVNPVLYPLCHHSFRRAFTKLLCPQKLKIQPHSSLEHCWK

As to `CC(=O)c1ccc(OCCCCCCN2CCN(c3ccncc3)CC2)cc1.O=C(O)C(=O)O` [KSK-59, 1-(4-((6-(4-(pyridin-4-yl)piperazin-1-yl)hexyl)oxy)phenyl)ethan-1-one oxalate], the IC50 (in general, the concentration at which inhibition is half-maximal) on H3 histamine receptor (setting [4]) is 3.79 ± 0.4 nM; at H3 histamine receptor (setting [5]), approximately 3 nM. Further, the body weight gain result in series [1] (palatable feed, 1 mg/kg b.w.) is “did not significantly affect weight gain”; in series [1] (setting [6]) it was “gained less weight than the control group fed palatable diet”. Further, in series [1] (setting [7]), the “caloric intake over the 28 days” value is listed as “comparable to the amount consumed by the control rats”. Moreover, in series [2], the “blood glucose levels at 30 or/and 60 min after glucose load” value is given as “significantly lower”. The “AUC of IPGTT” value in series [2] is “statistically significantly decreased”. Also, the Papp (usually a coefficient for how fast a substance crosses the barrier) at 5 h, 200 µM in the series “in vitro” stood at 4.35 ± 0.93 ×10⁻⁶ cm/s.
As for `CC(=O)c1ccc(OCCCCCCCCN2CCN(c3ccncc3)CC2)cc1.O=C(O)C(=O)O` [KSK-73, 1-(4-((8-(4-(pyridin-4-yl)piperazin-1-yl)octyl)oxy)phenyl)ethan-1-one oxalate], the IC50 is 10.5 ± 1.5 nM at H3 histamine receptor (setting [4]) and 10 to 20 nM on H3 histamine receptor (setting [5]). In addition, in series [1] (end of experiment, vs palatable feed + vehicle), the “fat pads in the peritoneal cavity” value is given as “Significantly fewer fat pads”. In addition, in series [1] (palatable feed, i.p. 10 mg/kg b.w., 10 mg/kg), the “body weight after the first administration” value is listed as “slowed down the rats’ body weight gain already after the first administration; also recorded: weight loss after the first administration”. Besides, the body weight gain result in series [1] (palatable feed, 1 mg/kg b.w.) was “caused significantly greater weight gain”; in series [1] (setting [6]), “gained less weight than the control group fed palatable diet”. Also, the “caloric intake over the 28 days” value in series [1] (setting [7]) was “significantly reduced animals caloric intake”. Also, the “blood glucose levels at 30 or/and 60 min after glucose load” value in series [2] is listed as “significantly lower”. Also, the “AUC of IPGTT” value in series [2] was “statistically significantly decreased”. Further, the “Pe (permeability coefficient) ± SD” value in series [3] is on record as 6.22 ± 2.3 10^−6 cm/s.

The record behind these values is publication PMC8622623, “Histamine H3 Receptor Ligands—KSK-59 and KSK-73—Reduce Body Weight Gain in a Rat Model of Excessive Eating” (Pharmaceuticals, 2021).
